“Also recorded” adds a separate entry of the source.
Experiments:
leech Retzius cell = experiment: Optical recording of spontaneous activity in leech ganglia; assay type: cell-based, Hirudo medicinalis; details: sampling at 50 Hz, stained 15 min
Description: A more stringent test of the usefulness of the PeT-based VSD is to determine whether it can accurately measure subthreshold activity in heterogeneous preparations. For this test we used leech ganglia, because their neurons have been well studied using both electrophysiological and other VSD recordings (14, 33-35). We isolated a midbody ganglion and stained it with VF2.1.Cl for 15 min at 22° C. (FIG. 13C). Insertion of a sharp electrode (25 MΩ) into a Retzius cell to enabled recording of its spontaneous activity while simultaneously recording the fluorescence signals from the same cell. […] The optically recorded spikes are truncated as a result of undersampling the optical signal; sampling at a higher rate (722 Hz) fully resolved the action potentials, but introduced a significant amount of sampling noise (FIG. 14). Although the action potential was subsampled at just 50 Hz, there is still a reliable transient in the optical trace that indicates the time when an action potential occurs, which is often what is needed.
Isolated midbody ganglia (Ganglia 8-16) were dissected from Hirudo medicinalis and the ventral side was desheathed using standard procedures. […]
Imaging was done with a Cascade 128+ EMCCD camera (Photometrics). […] The fluorescence illumination was from an LED that has its peak excitation wave-length in the excitation range for FITC. […] The data is stored in Matlab-readable files.

rat hippocampal neurons = experiment: Optical detection of evoked action potentials in cultured hippocampal neurons; assay type: cell-based
Description: To assay VF2.4.Cl's utility for monitoring neuronal activity, hippocampal neurons isolated from rats neonates were loaded with 2 μM VF2.4.Cl for 15 minutes, washed twice and imaged. […] Neurons were patched, current clamped, and injected with a small pulse (250-400 pA, 1-5 ms) to induce action potential firing. By using a high speed EMCCD camera, capable of sampling small regions of interest (ROI) at rates of approximately 2 kHz, enabled single trial optical detection of action potentials. An action potential with a total voltage change of ˜130 mV was well resolved optically and gave a ΔF/F of 24% with a signal-to-noise ratio of 16. Smaller spikes were detectable as well, a 100 mV change gave a ΔF/F of 15% with an SNR of 15. The slightly diminished sensitivity in neurons (0.15% per mV in neurons vs 0.25% per mV in HEK cells) can be explained primarily by the heterogeneous nature of the preparation; overlapping, non-excitable membranes loaded with VF2.4.Cl contribute to a non-responsive fluorescent signal which dilutes the responsive fraction.
To assess whether VF probes can detect action potentials in single trials, we used cultured rat hippocampal neurons. […] We then injected current into a neuron under whole-cell patch-clamp mode to trigger single action potentials and used a high-speed, back-illuminated EMCCD camera to track fast optical signals from VF2.4.Cl, enabling us to resolve action potentials in neurons in single sweeps (FIG. 13B). The optical trace matched the physiology trace and gave about a 20% ΔF/F increase in fluorescence and a 16:1 signal-to-noise ratio (SNR) in a single trial.
HEK293 cells were cultured in DMEM (CellGrow) supplemented with 10% FBS, 1% penicillin/streptomycin (Invitrogen) and plated on glassbottom culture dishes (35 mm dish, 14 mm microwell with No. 0 coverglass) (MatTek Corporation). Hippocampal neurons were dissected from postnatal day 0 or 1 rat pups and plated on poly-D-lysine-coated glassbottom culture dishes. Neuronal recordings were made 14-28 days in culture.
Electrophysiological recordings of HEK293 cells and cultured neurons were performed with an Axopatch 200A or 200B amplifier (Molecular Devices) at room temperature. The signals were digitized with Digidata 1332A and recorded with pCLAMP 9 software (Molecular Devices) on a PC. Analysis of electrophysiological data was done with AxoGraph X (AxoGraphX), pCLAMP 9, and/or ClampFit (Molecular Devices). For most experiments the extracellular solution consisted of (in mM) 145 NaCl, 20 glucose, 10 HEPES, 3 KCl, 2 CaCl2, 1 MgCl2 (pH 7.35, 310 mOsm). The intracellular solution contained (in mM) 115 potassium gluconate, 10 BAPTA tetrapotassium salt, 10 HEPES, 5 NaCl, 10 KCl, 2 ATP disodium salt, 0.3 GTP trisodium salt (pH 7.25, 290 mOsm).
For voltage sensitivity measurements, regions of interest were drawn around clamped cells and the mean fluorescence measured in ImageJ or Slidebook. For HEK cells, background fluorescence was subtracted by measuring the fluorescence where no cells grew. For experiments in neurons, the background fluorescence was not subtracted. In all cases, ΔF/F was calculated by dividing the fluorescence signal by the average fluorescence for a baseline of 10-20 frames prior to stimulation.

| Compound | optical recording versus electrical recording of spontaneous activity (leech Retzius cell) | SNR (rat hippocampal neurons; 100 mV change) | ΔF/F for smaller spike (rat hippocampal neurons; 100 mV change) [%] | signal-to-noise ratio (rat hippocampal neurons; action potential ~130 mV, single trial) | sensitivity in neurons (rat hippocampal neurons; rat hippocampal neurons) [% per mV] | ΔF/F increase in fluorescence for evoked action potential (rat hippocampal neurons; single trial, 2 μM, EMCCD 2 kHz) [%] | ΔF/F for action potential (rat hippocampal neurons; total voltage change ~130 mV, single trial, 2 μM) [%] |
| --- | --- | --- | --- | --- | --- | --- | --- |
| CN(C)c1ccc(/C=C/c2ccc(/C=C/c3ccc(-c4c5cc(Cl)c(=O)cc-5oc5cc(O)c(Cl)cc45)c(S(=O)(=O)O)c3)cc2)cc1 [VF2.1.Cl, 5-(4-(4-(dimethyllamino)styryl)styryl)-2-(2,7-dichloro-6-hydroxy-3-oxo-3H-xanthen-9-yl)benzenesulfonic acid] | near-perfect matching of the subthreshold membrane potential; also recorded: faithfully followed the subthreshold fluctuations | – | – | – | – | – | – |
| CCCCN(CCCC)c1ccc(/C=C/c2ccc(/C=C/c3ccc(-c4c5cc(Cl)c(=O)cc-5oc5cc(O)c(Cl)cc45)c(S(=O)(=O)O)c3)cc2)cc1 [VF2.4.Cl, 5-(4-(4-(dibutylamino)styryl)styryl)-2-(2,7-dichloro-6-hydroxy-3-oxo-3H-xanthen-9-yl)benzenesulfonic acid] | – | 15 | 15 | 16 | 0.15 | ~20 | 24 |

From patent US11187660B2, “Fluorescent probes for monitoring voltage by photo-induced electron transfer” (The Regents of the University of California, priority 2011, dated 2021)
